Test results reported in the supplement of paper PMC10883282.
Where a name gives a salt, the structure may show the parent alone. ± gives the standard deviation of the averaged measurements.

Test system: VA-ES-BJ
Assay: relative viability vs DMSO control (72 h) (fraction); higher = more viable cells
Method in brief: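 Densities for seeding sarcoma cell lines into 384-well plates were set to give 80–90% confluence. After 24 h, 2.5 µl of serially diluted compound from source plates of 10 mM to 0.0002 mM went in, and plates stayed 72 h at 37 °C in 5% CO2 with 0.1% DMSO vehicle and a 5 µM positive control. Percent growth from ATPLite readings, averaged over up to triplicate wells, served as relative viability, rescaled so 1 means full and 0 means none.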

SMILES	relative viability (0.00017 µM)	relative viability (0.00051 µM)	relative viability (0.00152 µM)	relative viability (0.00457 µM)	relative viability (0.01372 µM)	relative viability (0.04115 µM)	relative viability (0.1235 µM)	relative viability (0.3704 µM)	relative viability (1.111 µM)	relative viability (3.333 µM)	relative viability (10 µM)	relative viability (2 pM)	relative viability (5 pM)	relative viability (15 pM)	relative viability (50 pM)	relative viability (0.00014 µM)	relative viability (0.00041 µM)	relative viability (0.0012 µM)	relative viability (0.0037 µM)	relative viability (0.011 µM)	relative viability (200 fM)	relative viability (600 fM)
COc1cccc2c1C(=O)c1c(O)c3c(c(O)c1C2=O)C[C@@](O)(C(=O)CO)C[C@@H]3O[C@H]1C[C@H](N)[C@H](O)[C@H](C)O1 [Doxorubicin Hydrochloride]	1.03 ± 0.017	1.06 ± 0.08	1.03 ± 0.05	0.99 ± 0.033	0.857 ± 0.064	0.629 ± 0.028	0.386 ± 0.016	0.164 ± 0.012	0.189 ± 0.0067	0.143 ± 0.035	0.126 ± 0.011	–	–	–	–	–	–	–	–	–	–	–
CO[C@H]1C[C@@H]2CC[C@@H](C)[C@@](O)(O2)C(=O)C(=O)N2CCCC[C@H]2C(=O)O[C@H]([C@H](C)C[C@@H]2CC[C@@H](OP(C)(C)=O)[C@H](OC)C2)CC(=O)[C@H](C)/C=C(\C)[C@@H](O)[C@@H](OC)C(=O)[C@H](C)C[C@H](C)/C=C/C=C/C=C/1C [Ridaforolimus]	0.97 ± 0.051	0.889 ± 0.031	0.664 ± 0.016	0.602 ± 0.03	0.538 ± 0.018	0.509 ± 0.025	0.487 ± 0.03	0.459 ± 0.0073	0.48 ± 0.014	0.458 ± 0.026	0.45 ± 0.0084	–	–	–	–	–	–	–	–	–	–	–
Cc1cc(C)c(/C=C2\C(=O)Nc3ccccc32)[nH]1 [Semaxanib]	0.973 ± 0.027	0.969 ± 0.045	0.969 ± 0.039	0.97 ± 0.023	0.948 ± 0.016	0.914 ± 0.014	0.922 ± 0.021	0.901 ± 0.048	0.889 ± 0.043	0.902 ± 0.016	0.855 ± 0.078	–	–	–	–	–	–	–	–	–	–	–
CN1CCC(COc2cnc(-c3cccc(Cn4nc(-c5cccc(C#N)c5)ccc4=O)c3)nc2)CC1 [Tepotinib]	1.07 ± 0.019	1.06 ± 0.021	1.02 ± 0.033	1.05 ± 0.044	1.02 ± 0.023	0.943 ± 0.044	0.869 ± 0.021	0.866 ± 0.04	0.869 ± 0.067	0.845 ± 0.045	0.869 ± 0.041	–	–	–	–	–	–	–	–	–	–	–
COc1cc2c(Oc3ccc4[nH]c(C)cc4c3F)ncnc2cc1OCCCN1CCCC1 [Cediranib]	1.05 ± 0.045	1.03 ± 0.055	1.04 ± 0.048	1.06 ± 0.038	1.04 ± 0.029	1.07 ± 0.067	1.09 ± 0.068	1.13 ± 0.065	1.15 ± 0.051	1.15 ± 0.022	1.13 ± 0.01	–	–	–	–	–	–	–	–	–	–	–
C[C@@H](c1ccc2nccn2c1)n1nnc2ncc(-c3cnn(C)c3)nc21 [Volitinib]	1.07 ± 0.067	1.07 ± 0.053	1.04 ± 0.062	1.02 ± 0.046	0.93 ± 0.043	0.868 ± 0.066	0.875 ± 0.03	0.879 ± 0.058	0.884 ± 0.048	0.873 ± 0.042	0.886 ± 0.048	–	–	–	–	–	–	–	–	–	–	–
CC1(C)CNc2cc(NC(=O)c3cccnc3NCc3ccncc3)ccc21 [Motesanib]	0.98 ± 0.021	0.982 ± 0.018	0.976 ± 0.041	1 ± 0.03	0.9877 ± 0.0081	1 ± 0.017	1.011 ± 0.0069	1.02 ± 0.022	1.04 ± 0.042	1.04 ± 0.024	1.03 ± 0.029	–	–	–	–	–	–	–	–	–	–	–
N#CC[C@H](C1CCCC1)n1cc(-c2ncnc3[nH]ccc23)cn1 [Ruxolitinib]	1.03 ± 0.03	1.05 ± 0.026	1.002 ± 0.01	1.006 ± 0.0095	1.02 ± 0.014	1.03 ± 0.024	0.987 ± 0.014	0.985 ± 0.025	0.969 ± 0.015	1 ± 0.03	0.8995 ± 0.0059	–	–	–	–	–	–	–	–	–	–	–
Cc1nc(NC(=O)N2CCC[C@H]2C(N)=O)sc1-c1ccnc(C(C)(C)C(F)(F)F)c1 [Alpelisib]	1.062 ± 0.0069	1.03 ± 0.048	1.03 ± 0.022	0.992 ± 0.054	0.981 ± 0.04	0.94 ± 0.045	0.924 ± 0.045	0.833 ± 0.019	0.741 ± 0.021	0.61 ± 0.01	0.378 ± 0.011	–	–	–	–	–	–	–	–	–	–	–
CN1CCN(c2ccc3nc(-c4c(N)c5c(F)cccc5[nH]c4=O)[nH]c3c2)CC1 [Dovitinib]	1.06 ± 0.027	1.06 ± 0.028	1.08 ± 0.044	1.08 ± 0.028	1.07 ± 0.029	1.06 ± 0.031	1.05 ± 0.025	0.956 ± 0.0053	0.738 ± 0.049	0.495 ± 0.021	0.313 ± 0.039	–	–	–	–	–	–	–	–	–	–	–
COc1cc2c(cc1O)CCN[C@]21CS[C@@H]2c3c(OC(C)=O)c(C)c4c(c3[C@H](COC1=O)N1[C@@H]2[C@H]2c3c(cc(C)c(OC)c3O)C[C@@H]([C@@H]1O)N2C)OCO4 [Trabectedin]	–	–	–	–	–	–	–	–	–	–	–	1.096 ± 0.0079	1.09 ± 0.014	1.07 ± 0.029	1.01 ± 0.046	0.683 ± 0.012	0.389 ± 0.1	0.239 ± 0.087	0.183 ± 0.014	0.203 ± 0.018	1.07 ± 0.024	1.08 ± 0.032
C=CC(=O)Nc1cccc(Oc2nc(Nc3ccc(N4CCN(C)CC4)cc3)nc3ccsc23)c1 [Olmutinib]	1.01 ± 0.052	1.01 ± 0.029	1.01 ± 0.029	1.01 ± 0.027	1.02 ± 0.043	1 ± 0.039	0.996 ± 0.052	0.96 ± 0.065	0.905 ± 0.06	0.786 ± 0.038	0.534 ± 0.013	–	–	–	–	–	–	–	–	–	–	–
CC(C)NC(=O)C1CCC(n2c(NC(=O)c3ccc(F)cc3)nc3ccc(CN4CCC(C(C)(C)O)CC4)cc32)CC1 (centres undefined) [Belizatinib]	1.05 ± 0.04	1.07 ± 0.059	1.05 ± 0.064	1.04 ± 0.018	1.08 ± 0.022	1.06 ± 0.046	1 ± 0.017	0.926 ± 0.014	0.658 ± 0.012	0.359 ± 0.012	0.164 ± 0.0087	–	–	–	–	–	–	–	–	–	–	–
CCN1CCN(Cc2ccc(Nc3ncc(F)c(-c4cc(F)c5nc(C)n(C(C)C)c5c4)n3)nc2)CC1 [Abemaciclib]	1.02 ± 0.014	1.03 ± 0.0088	1.015 ± 0.0082	1 ± 0.019	0.994 ± 0.037	0.92 ± 0.042	0.779 ± 0.032	0.694 ± 0.018	0.681 ± 0.023	0.562 ± 0.021	0.427 ± 0.056	–	–	–	–	–	–	–	–	–	–	–
COc1c(OCCCN2CCOCC2)ccc2c1N=C(NC(=O)c1cnc(N)nc1)N1CCN=C21 [Copanlisib]	1.09 ± 0.027	0.983 ± 0.071	1.066 ± 0.0069	0.74 ± 0.026	0.594 ± 0.029	0.484 ± 0.017	0.42 ± 0.022	0.396 ± 0.041	0.406 ± 0.019	0.394 ± 0.095	0.304 ± 0.16	–	–	–	–	–	–	–	–	–	–	–
Cc1nc(-c2cn3c(n2)-c2ccc(-c4cnn(C(C)(C)C(N)=O)c4)cc2OCC3)n(C(C)C)n1 [Taselisib]	1.01 ± 0.045	1.01 ± 0.03	1.02 ± 0.071	0.971 ± 0.048	0.943 ± 0.038	0.844 ± 0.039	0.75 ± 0.06	0.616 ± 0.056	0.379 ± 0.013	0.293 ± 0.028	0.144 ± 0.15	–	–	–	–	–	–	–	–	–	–	–
O=C(Cc1ccc(-c2ccc(OCCN3CCOCC3)cc2)cn1)NCc1ccccc1 [KX2-391]	1.09 ± 0.045	1.06 ± 0.043	1.06 ± 0.021	1.05 ± 0.044	0.96 ± 0.032	0.584 ± 0.026	0.385 ± 0.021	0.368 ± 0.021	0.314 ± 0.015	0.29 ± 0.017	0.309 ± 0.018	–	–	–	–	–	–	–	–	–	–	–
C[C@@H]1COCCN1c1cc(-c2ccnn2C)c2ccnc(-c3ccn[nH]3)c2n1	1.02 ± 0.024	1.02 ± 0.03	1.01 ± 0.0075	1.05 ± 0.018	0.97 ± 0.07	0.739 ± 0.039	0.464 ± 0.038	0.212 ± 0.015	0.191 ± 0.0065	0.19 ± 0.015	0.173 ± 0.019	–	–	–	–	–	–	–	–	–	–	–
Cc1cnc(Nc2ccc(OCCN3CCCC3)cc2)nc1Nc1cccc(S(=O)(=O)NC(C)(C)C)c1 [Fedratinib]	1.06 ± 0.042	1.08 ± 0.013	1.03 ± 0.023	1.05 ± 0.021	1.04 ± 0.013	1 ± 0.037	1.02 ± 0.032	0.781 ± 0.018	0.403 ± 0.019	0.152 ± 0.0076	-0.0115 ± 0.0047	–	–	–	–	–	–	–	–	–	–	–
